# Reference: PubChem BioAssay (NCI)
#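 How tested: cells in 96-well plates exposed to compound for 48 hours at five concentrations. The concentration for full growth arrest is given as TGI.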
# Assays:
# Test in all cases: DTP human tumour cell line panel, 48 h
# [1] = test system: 786-0 renal
# [2] = test system: A498 renal
# [3] = test system: A549 NSCLC
# [4] = test system: ACHN renal
# [5] = test system: CAKI-1 renal
# [6] = test system: CCRF-CEM leukemia
# [7] = test system: COLO 205 colon
# [8] = test system: DLD-1 colon
# [9] = test system: DMS 114 small cell lung
# [10] = test system: DMS 273 small cell lung
# [11] = test system: EKVX NSCLC
# [12] = test system: HCT-116 colon
# [13] = test system: HCT-15 colon
# [14] = test system: HL-60(TB) leukemia
# [15] = test system: HOP-18 NSCLC
# [16] = test system: HOP-62 NSCLC
# [17] = test system: HOP-92 NSCLC
# [18] = test system: HT29 colon
# [19] = test system: IGROV1 ovarian
# [20] = test system: K-562 leukemia
# [21] = test system: KM12 colon
# [22] = test system: KM20L2 colon
# [23] = test system: LOX IMVI melanoma
# [24] = test system: LXFL 529 NSCLC
# [25] = test system: M14 melanoma
# [26] = test system: M19-MEL melanoma
# [27] = test system: MALME-3M melanoma
# [28] = test system: NCI-H226 lung
# [29] = test system: NCI-H460 lung
# [30] = test system: NCI-H522 lung
# [31] = test system: OVCAR-3 ovarian
# [32] = test system: OVCAR-4 ovarian
# [33] = test system: OVCAR-5 ovarian
# [34] = test system: OVCAR-8 ovarian
# [35] = test system: RPMI-8226 leukemia
# [36] = test system: RXF 393 renal
# [37] = test system: RXF-631 renal
# [38] = test system: SF-268 CNS
# [39] = test system: SF-295 CNS
# [40] = test system: SF-539 CNS
# [41] = test system: SK-MEL-2 melanoma
# [42] = test system: SK-MEL-28 melanoma
# [43] = test system: SK-MEL-5 melanoma
# [44] = test system: SK-OV-3 ovarian
# [45] = test system: SN12C renal
# [46] = test system: SNB-19 CNS
# [47] = test system: SNB-75 CNS
# [48] = test system: SNB-78 CNS
# [49] = test system: SR leukemia
# [50] = test system: SW-620 colon
# [51] = test system: TK-10 renal
# [52] = test system: U251 CNS
# [53] = test system: UACC-257 melanoma
# [54] = test system: UACC-62 melanoma
# [55] = test system: UO-31 renal
# [56] = test system: HCC-2998 colon
# [57] = test system: NCI-H23 lung
compound,measurement,setting,value
CS(=O)(=O)OCCn1cnc2nc(NC(=O)c3ccccc3)[nH]c(=O)c21,TGI,[1],> 100 µM
same,TGI,[2],> 100 µM
same,TGI,[3],> 100 µM
same,TGI,[4],> 100 µM
same,TGI,[5],> 100 µM
same,TGI,[6],> 100 µM
same,TGI,[7],> 100 µM
same,TGI,[8],> 100 µM
same,TGI,[9],> 100 µM
same,TGI,[10],> 100 µM
same,TGI,[11],> 100 µM
same,TGI,[12],> 100 µM
same,TGI,[13],> 100 µM
same,TGI,[14],> 100 µM
same,TGI,[15],> 100 µM
same,TGI,[16],> 100 µM
same,TGI,[17],> 100 µM
same,TGI,[18],> 100 µM
same,TGI,[19],> 100 µM
same,TGI,[20],> 100 µM
same,TGI,[21],> 100 µM
same,TGI,[22],> 100 µM
same,TGI,[23],> 100 µM
same,TGI,[24],> 100 µM
same,TGI,[25],> 100 µM
same,TGI,[26],> 100 µM
same,TGI,[27],> 100 µM
same,TGI,[28],> 100 µM
same,TGI,[29],> 100 µM
same,TGI,[30],> 100 µM
same,TGI,[31],> 100 µM
same,TGI,[32],> 100 µM
same,TGI,[33],> 100 µM
same,TGI,[34],> 100 µM
same,TGI,[35],> 100 µM
same,TGI,[36],> 100 µM
same,TGI,[37],> 100 µM
same,TGI,[38],> 100 µM
same,TGI,[39],> 100 µM
same,TGI,[40],> 100 µM
same,TGI,[41],> 100 µM
same,TGI,[42],> 100 µM
same,TGI,[43],> 100 µM
same,TGI,[44],> 100 µM
same,TGI,[45],> 100 µM
same,TGI,[46],> 100 µM
same,TGI,[47],> 100 µM
same,TGI,[48],> 100 µM
same,TGI,[49],> 100 µM
same,TGI,[50],> 100 µM
same,TGI,[51],> 100 µM
same,TGI,[52],> 100 µM
same,TGI,[53],> 100 µM
same,TGI,[54],> 100 µM
same,TGI,[55],> 100 µM
CC(/C(=N/NC(=O)C(N)=O)c1c(Cl)ccc(Cl)c1O)C1(O)C(=O)Nc2ccccc21 (stereo not given),TGI,[1],> 100 µM
same,TGI,[2],76.9 µM
same,TGI,[3],> 100 µM
same,TGI,[4],> 100 µM
same,TGI,[5],> 100 µM
same,TGI,[6],75.8 µM
same,TGI,[7],49.1 µM
same,TGI,[8],> 100 µM
same,TGI,[9],> 100 µM
same,TGI,[10],> 100 µM
same,TGI,[11],> 100 µM
same,TGI,[56],> 100 µM
same,TGI,[12],> 100 µM
same,TGI,[13],> 100 µM
same,TGI,[14],68 µM
same,TGI,[15],> 100 µM
same,TGI,[16],> 100 µM
same,TGI,[17],75.2 µM
same,TGI,[18],> 100 µM
same,TGI,[19],> 100 µM
same,TGI,[20],> 100 µM
same,TGI,[21],> 100 µM
same,TGI,[22],> 100 µM
same,TGI,[23],> 100 µM
same,TGI,[24],> 100 µM
same,TGI,[25],> 100 µM
same,TGI,[26],> 100 µM
same,TGI,[27],> 100 µM
same,TGI,[28],> 100 µM
same,TGI,[57],> 100 µM
same,TGI,[29],78.9 µM
same,TGI,[30],44.6 µM
same,TGI,[31],> 100 µM
same,TGI,[32],92.3 µM
same,TGI,[33],> 100 µM
same,TGI,[34],> 100 µM
same,TGI,[36],> 100 µM
same,TGI,[37],> 100 µM
same,TGI,[38],> 100 µM
same,TGI,[39],> 100 µM
same,TGI,[40],> 100 µM
same,TGI,[41],> 100 µM
same,TGI,[42],> 100 µM
same,TGI,[43],> 100 µM
same,TGI,[44],> 100 µM
same,TGI,[45],> 100 µM
same,TGI,[46],> 100 µM
same,TGI,[47],> 100 µM
same,TGI,[48],> 100 µM
same,TGI,[50],> 100 µM
same,TGI,[51],> 100 µM
same,TGI,[52],> 100 µM
same,TGI,[53],> 100 µM
same,TGI,[54],> 100 µM
same,TGI,[55],> 100 µM
